Laboratory results from patent publication US9884048B2, “ERK inhibitors” (Merck Sharp & Dohme Corp., priority 2014, dated 2018).

Target: phosphorylated active hERK2 enzyme (Homo sapiens (Human), UniProt P28482)
Conditions: read-out: ERK2 IC50; IMAP-FP assay; 0.5 nM hERK2, 30 μM ATP; 10 point titration, 3 μM starting concentration

Sequence of phosphorylated active hERK2 enzyme (P28482 whole entry): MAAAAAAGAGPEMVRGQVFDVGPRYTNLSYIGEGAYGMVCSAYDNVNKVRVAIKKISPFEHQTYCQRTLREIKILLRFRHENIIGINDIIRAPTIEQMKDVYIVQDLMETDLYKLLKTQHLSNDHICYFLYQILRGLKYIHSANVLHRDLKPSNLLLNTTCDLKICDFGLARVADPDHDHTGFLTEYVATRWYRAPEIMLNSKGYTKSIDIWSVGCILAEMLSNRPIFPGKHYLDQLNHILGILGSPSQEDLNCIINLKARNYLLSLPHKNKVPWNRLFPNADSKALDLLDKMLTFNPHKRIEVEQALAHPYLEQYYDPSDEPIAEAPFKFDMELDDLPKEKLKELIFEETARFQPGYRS

Compared with `Cc1cc(-n2ncc3cc(NC(=O)N[C@H]4[C@H](c5ccccc5C)CN(C)[C@H]4C)ncc32)ccn1` [Example 101, 1-[(2S,3S,4R)-1,2-dimethyl-4-(2-methylphenyl)-pyrrolidin-3-yl]-3-[1-(2-methylpyridin-4-yl)-1H-pyrazolo[3,4-c]pyridin-5-yl)urea], `Cc1cc(-n2ncc3cc(NC(=O)N[C@@H]4[C@@H](C)N(C)C[C@H]4c4ccccc4C)ncc32)ccn1` [Example 104, 1-[(2R,3S,4R)-1,2-dimethyl-4-(2-methyl-phenyl)pyrrolidin-3-yl]-3-[1-(2-methylpyridin-4-yl)-1H-pyrazolo[3,4-c]pyridin-5-yl]urea] is 71-fold higher in IC50: 0.5 nM for the first, 35.5 nM for the second.

First: Cc1cc(-n2ncc3cc(NC(=O)N[C@H]4[C@H](c5ccccc5C)CN(C)C4(C)C)ncc32)ccn1 [Example 102, 1-[1-(2-methylpyridin-4-yl)-1H-pyrazolo[3,4-c]pyridin-5-yl]-3-[(3S,4R)-1,2,2-trimethyl-4-(2-methylphenyl)pyrrolidin-3-yl)urea]
Second: Cc1cc(-n2ncc3cc(NC(=O)N[C@@H]4CN(C)C(C)(C)[C@H]4c4ccccc4C)ncc32)ccn1 [Example 103, 1-[1-(2-methylpyridin-4-yl)-1H-pyrazolo[3,4-c]pyridin-5-yl]-3-[(3S,4S)-1,5,5-trimethyl-4-(2-methylphenyl)pyrrolidin-3-yl)urea]
The IC50 of the first is 210-fold higher: 235 nM for the first, 1.14 nM for the second. The second is the more potent here.

`Cc1cc(-n2ncc3cc(NC(=O)N[C@@H]4CN(C)[C@@H](C)[C@H]4c4ccccc4C)ncc32)ccn1` [Example 105, 1-[(3S,4S,5S)-1,5-dimethyl-4-(2-methylphenyl)-pyrrolidin-3-yl]-3-[1-(2-methylpyridin-4-yl)-1H-pyrazolo[3,4-c]pyridin-5-yl)urea] and `Cc1cc(-n2ncc3cc(NC(=O)N[C@@H]4CN(C)[C@H](C)[C@H]4c4ccccc4C)ncc32)ccn1` [Example 106, 1-[(3S,4S,5R)-1,5-dimethyl-4-(2-methylphenyl)-pyrrolidin-3-yl]-3-[1-(2-methylpyridin-4-yl)-1H-pyrazolo[3,4-c]pyridin-5-yl)urea] are within 1.5-fold of each other in IC50: 2.15 nM for the first, 1.52 nM for the second.

Going from `Cc1cc(-n2ncc3cc(NC(=O)N[C@H]4[C@H](c5ccccc5)CN(C)C45COC5)ncc32)ccn1` [Example 107, 1-[(7R,8S)-5-methyl-7-phenyl-2-oxa-5-azaspiro[3.4]oct-8-yl]-3-[1-(2-methylpyridin-4-yl)-1H-pyrazolo[3,4-c]pyridin-5-yl)urea] to `Cc1cc(-n2ncc3cc(NC(=O)N[C@H]4CN(C)C[C@@H]4CCc4ccccc4)ncc32)ccn1` [Example 115, 1-[(3R,4S)-1-methyl-4-(2-phenylethyl)pyrrolidin-3-yl]-3-[1-(2-methylpyridin-4-yl)-1H-pyrazolo[3,4-c]-pyridin-5-yl)urea], the IC50 falls from 9.04 nM to 0.689 nM (13-fold). The second is the more potent here.

Compared with `Cc1cc(-n2ncc3cc(NC(=O)NCc4cn(C)cn4)ncc32)ccn1` [Example 108, 1-[(1-methyl-1H-imidazol-4-yl)methyl]-3-[1-(2-methylpyridin-4-yl)-1H-pyrazolo[3,4-c]pyridin-5-yl)urea], `Cc1cc(-n2ncc3cc(NC(=O)NCc4cc(C)nn4C)ncc32)ccn1` [Example 119, 1-[(1,3-dimethyl-1H-pyrazol-5-yl)methyl]-3-[1-(2-methylpyridin-4-yl)-1H-pyrazolo[3,4-c]pyridin-5-yl)urea] is 2.9-fold lower in IC50: 284 nM for the first, 96.6 nM for the second.

First: Cc1cc(-n2ncc3cc(NC(=O)NCCN4CCOCC4)ncc32)ccn1 [Example 109, 1-[1-(2-methylpyridin-4-yl)-1H-pyrazolo[3,4-c]pyridin-5-yl]-3-(2-morpholin-4-ylethyl)urea]
Second: Cc1cc(-n2ncc3cc(NC(=O)NCCF)ncc32)ccn1 [Example 110, 1-(2-fluoroethyl)-3-[1-(2-methylpyridin-4-yl)-1H-pyrazolo[3,4-c]pyridin-5-yl]urea]
The IC50 of the first is 5.9-fold higher: 627 nM for the first, 106 nM for the second.

`COCCNC(=O)Nc1cc2cnn(-c3ccnc(C)c3)c2cn1` [Example 111, 1-(2-methoxyethyl)-3-[1-(2-methylpyridin-4-yl)-1H-pyrazolo[3,4-c]pyridin-5-yl)urea] and `Cc1cc(-n2ncc3cc(NC(=O)NCC(C)O)ncc32)ccn1` (centres unmarked) [Example 120, 1-(2-hydroxypropyl)-3-[1-(2-methylpyridin-4-yl)-1H-pyrazolo[3,4-c]pyridin-5-yl)urea] are within 1.5-fold of each other in IC50: 81.8 nM for the first, 108 nM for the second.

Going from `Cc1cc(-n2ncc3cc(NC(=O)N[C@@H]4CN(C)C[C@H]4c4cccnc4)ncc32)ccn1` [Example 112, 1-[1-(2-methylpyridin-4-yl)-1H-pyrazolo[3,4-c]pyridin-5-yl]-3-[(3S,4R)-1-methyl-4-pyridin-3-ylpyrrolidin-3-yl)urea] to `Cc1cc(-n2ncc3cc(NC(=O)N[C@H]4CN(C)C[C@@H]4c4sccc4C)ncc32)ccn1` [Example 113, 1-[(3R,4S)-1-methyl-4-(3-methylthiophen-2-yl)pyrrolidin-3-yl]-3-[1-(2-methylpyridin-4-yl)-1H-pyrazolo[3,4-c]pyridin-5-yl)urea], the IC50 falls from 48.7 nM to 7.11 nM (6.8-fold). The second is the more potent here.

Going from `Cc1cc(-n2ncc3cc(NC(=O)NCc4c(-c5ccccc5)noc4C)ncc32)ccn1` [Example 114, 1-[(5-methyl-3-phenyl-isoxazol-4-yl)methyl]-3-[1-(2-methylpyridin-4-yl)-1H-pyrazolo[3,4-c]pyridin-5-yl)urea] to `Cc1cc(-n2ncc3cc(NC(=O)NCc4csc5ccccc45)ncc32)ccn1` [Example 125, 1-(1-benzothiophen-3-ylmethyl)-3-[1-(2-methylpyridin-4-yl)-1H-pyrazolo[3,4-c]pyridin-5-yl)urea], the IC50 rises from 2.14 nM to 84.5 nM (39-fold). The first is the more potent here.

First: Cc1cc(-n2ncc3cc(NC(=O)NCc4c(C)nn(C)c4C)ncc32)ccn1 [Example 116, 1-[1-(2-methylpyridin-4-yl)-1H-pyrazolo[3,4-c]pyridin-5-yl]-3-[(1,3,5-trimethyl-1H-pyrazol-4-yl)methyl]urea]
Second: Cc1cc(-n2ncc3cc(NC(=O)NCc4nonc4C)ncc32)ccn1 [Example 118, 1-[(4-methyl-1,2,5-oxadiazol-3-yl)methyl]-3-[1-(2-methylpyridin-4-yl)-1H-pyrazolo[3,4-c]pyridin-5-yl]urea]
The IC50 of the first is 5.1-fold higher: 27.6 nM for the first, 5.38 nM for the second. The second is the more potent here.

Compared with `Cc1cc(-n2ncc3cc(NC(=O)NCCc4c(C)noc4C)ncc32)ccn1` [Example 117, 1-[2-(3,5-dimethylisoxazol-4-yl)ethyl]-3-[1-(2-methylpyridin-4-yl)-1H-pyrazolo[3,4-c]pyridin-5-yl)urea], `Cc1cc(-n2ncc3cc(NC(=O)NC(C)c4csc(C)n4)ncc32)ccn1` (centres unmarked) [Example 123, 1-[1-(2-methylpyridin-4-yl)-1H-pyrazolo[3,4-c]pyridin-5-yl]-3-[1-(2-methyl-1,3-thiazol-4-yl)ethyl]urea] is 1.5-fold higher in IC50: 16.4 nM for the first, 24.8 nM for the second.

Going from `Cc1cc(-n2ncc3cc(NC(=O)NC4(C#N)CC4)ncc32)ccn1` [Example 121, 1-(1-cyanocyclopropyl)-3-[1-(2-methylpyridin-4-yl)-1H-pyrazolo[3,4-c]pyridin-5-yl]urea] to `Cc1cc(-n2ncc3cc(NC(=O)NC4CCNC4)ncc32)ccn1` (centres unmarked) [Example 133, 1-[1-(2-methylpyridin-4-yl)-1H-pyrazolo[3,4-c]pyridin-5-yl]-3-pyrrolidin-3-ylurea], the IC50 falls from 1810 nM to 456 nM (4-fold).

Compared with `Cc1cc(-n2ncc3cc(NC(=O)NC(C)(C)c4ccccc4)ncc32)ccn1` [Example 122, 1-(1-methyl-1-phenylethyl)-3-[1-(2-methylpyridin-4-yl)-1H-pyrazolo[3,4-c]pyridin-5-yl]urea], `Cc1cc(-n2ncc3cc(NC(=O)N[C@H](CN(C)C)c4ccccc4)ncc32)ccn1` [Example 130, 1-[(1S)-2-(dimethylamino)-1-phenylethyl]-3-[1-(2-methylpyridin-4-yl)-1H-pyrazolo[3,4-c]pyridin-5-yl)urea] is 2.2-fold higher in IC50: 56.8 nM for the first, 123 nM for the second.

Going from `Cc1cc(-n2ncc3cc(NC(=O)N[C@@H]4CN(C)C[C@H]4c4ccc(C)s4)ncc32)ccn1` [Example 124, 1-[(3S,4R)-1-methyl-4-(5-methylthiophen-2-yl)pyrrolidin-3-yl]-3-[1-(2-methylpyridin-4-yl)-1H-pyrazolo[3,4-c]pyridin-5-yl)urea] to `Cc1cc(-n2ncc3cc(NC(=O)N[C@@H]4CN(C)C[C@H]4c4nc(C)cs4)ncc32)ccn1` [Example 126, 1-[(3S,4R)-1-methyl-4-(4-methyl-1,3-thiazol-2-yl)pyrrolidin-3-yl]-3-[1-(2-methylpyridin-4-yl)-1H-pyrazolo[3,4-c]pyridin-5-yl)urea], the IC50 rises from 1.01 nM to 15.8 nM (16-fold).

Compared with `Cc1cc(-n2ncc3cc(NC(=O)N[C@H](CN4CCOCC4)c4ccccc4)ncc32)ccn1` [Example 127, 1-[1-(2-methylpyridin-4-yl)-1H-pyrazolo[3,4-c]pyridin-5-yl]-3-[(1S)-2-morpholin-4-yl-1-phenylethyl]urea], `Cc1cc(-n2ncc3cc(NC(=O)N[C@H](Cn4ccnc4)c4ccccc4)ncc32)ccn1` [Example 134, 1-[(1S)-2-(1H-imidazol-1-yl)-1-phenylethyl]-3-[1-(2-methylpyridin-4-yl)-1H-pyrazolo[3,4-c]pyridin-5-yl]urea] is 3.1-fold higher in IC50: 152 nM for the first, 475 nM for the second. The first is the more potent here.

Compared with `Cc1cc(-n2ncc3cc(NC(=O)NC(C)c4csc(C)n4)ncc32)ccn1` (centres unmarked) [Example 128, 1-[1-(2-methylpyridin-4-yl)-1H-pyrazolo[3,4-c]pyridin-5-yl]-3-[1-(2-methyl-1,3-thiazol-4-yl)ethyl]urea], `Cc1cc(-n2ncc3cc(NC(=O)N[C@H](COC(C)C)c4ccccc4)ncc32)ccn1` [Example 135, 1-[(1S)-2-(1-methylethoxy)-1-phenylethyl]-3-[1-(2-methylpyridin-4-yl)-1H-pyrazolo[3,4-c]pyridin-5-yl]urea] is 2600-fold lower in IC50: 2030 nM for the first, 0.786 nM for the second. The second is the more potent here.

Going from `CCOC[C@@H](NC(=O)Nc1cc2cnn(-c3ccnc(C)c3)c2cn1)c1ccccc1` [Example 129, 1-[(1S)-2-ethoxy-1-phenylethyl]-3-[1-(2-methylpyridin-4-yl)-1H-pyrazolo[3,4-c]pyridin-5-yl)urea] to `Cc1cc(-n2ncc3cc(NC(=O)NC(C)c4csc(C)n4)ncc32)ccn1` (centres unmarked) [Example 131, 1-[1-(2-methylpyridin-4-yl)-1H-pyrazolo[3,4-c]pyridin-5-yl]-3-[1-(2-methyl-1,3-thiazol-4-yl)ethyl]urea], the IC50 rises from 1.09 nM to 10.9 nM (10-fold). The first is the more potent here.

For `CO[C@H]1CNC[C@@H]1NC(=O)Nc1cc2cnn(-c3ccnc(C)c3)c2cn1` [Example 132, 1-[(3S,4S)-4-methoxypyrrolidin-3-yl]-3-[1-(2-methylpyridin-4-yl)-1H-pyrazolo[3,4-c]pyridin-5-yl]urea], the IC50 was 168 nM.
